# Source: patent publication US20090036492A1, “Novel Cercosporamide Derivative” (priority 2005, published 2009)
# Tested on: male KK mice
# Test: Blood glucose lowering effect in diabetic KK mice
# Format: in vivo
# Settings: Mus musculus, po, 72 h, 15 to 20 weeks old, feed containing 0.03% of the compound, three days, blood glucose on the 3rd day vs control group, read-out: Blood glucose lowering efficacy (%)
# Text: Six-week-old male KK mice were purchased from CLEA Japan, Inc. and then were fed until 15 to 20 weeks old and affected with diabetes. The mice were individually fed during the adaptation period and the test period, and water and feed (FR2, Funabashi Farm) were freely ingested.
# At the start of the experiment, after body weight measurement, blood was collected from the tail vein of the mice into a heparin-coated glass tube and centrifuged, and then plasma was separated. The glucose level in the plasma was measured by Glucoloader GXT (A&T Corp.), and individuals having a blood glucose level of about 350 mg/dl or more were selected. Groups each having 3 to 4 mice were used for the experiment, and the mice were grouped to make the average body weight and the average blood glucose level similar. Each compound was administered to a compound administration group by feeding a mixture with feed containing 0.03% of the compound. A separate group in which the mice were fed only with feed was a control group.
# The experiment period (drug administration period) was three days. The grouping day was the 0th day. On the 3rd day, body weight was measured and blood was collected from the tail vein to measure the blood glucose level.
# The blood glucose lowering efficacy was determined by the following formula.
# Blood glucose lowering efficacy=[(Control group blood glucose level−Compound administration group blood glucose level)/Control group blood glucose level]×100
row,Structure (SMILES),inhibition in vivo at 0.03 % in feed [%]
1,"CCc1cc(F)c2ccc(C)cc2c1CNC(=O)c1c(OC)cc(O)c2c1OC1=CC(O)=C(C(C)=O)C(=O)[C@]12C [Example 189, (9aS)-8-Acetyl-N-[(2-ethyl-4-fluoro-7-methyl-1-naphthyl)methyl]-1,7-dihydroxy-3-methoxy-9a-methyl-9-oxo-9,9a-dihydrodibenzo[b,d]furan-4-carboxamide]",47
2,"COc1cc(O)c2c(c1C(=O)NCc1c(C)ccc3c(F)c(F)c(F)cc13)OC1=CC(O)=C(C(C)=O)C(=O)[C@]12C [Example 190, (9aS)-8-Acetyl-1,7-dihydroxy-3-methoxy-9a-methyl-9-oxo-N-[(5,6,7-trifluoro-2-methyl-1-naphthyl)methyl]-9,9a-dihydrodibenzo[b,d]furan-4-carboxamide]",58
3,"CCc1ccc2cccc(F)c2c1CNC(=O)c1c(OC)cc(O)c2c1OC1=CC(O)=C(C(C)=O)C(=O)[C@]12C [Example 192, (9aS)-8-Acetyl-N-[(2-ethyl-8-fluoro-1-naphthyl)methyl]-1,7-dihydroxy-3-methoxy-9a-methyl-9-oxo-9,9a-dihydrodibenzo[b,d]furan-4-carboxamide]",42
4,"CCc1ccc2ccc(F)c(F)c2c1CNC(=O)c1c(OC)cc(O)c2c1OC1=CC(O)=C(C(C)=O)C(=O)[C@]12C [Example 193, (9aS)-8-Acetyl-N-[(2-ethyl-7,8-difluoro-1-naphthyl)methyl]-1,7-dihydroxy-3-methoxy-9a-methyl-9-oxo-9,9a-dihydrodibenzo[b,d]furan-4-carboxamide]",50
5,"CCc1ccc2c(F)cc(C)cc2c1CNC(=O)c1c(OC)cc(O)c2c1OC1=CC(O)=C(C(C)=O)C(=O)[C@]12C [Example 195, (9aS)-8-Acetyl-N-[(2-ethyl-5-fluoro-7-methyl-1-naphthyl)methyl]-1,7-dihydroxy-3-methoxy-9a-methyl-9-oxo-9,9a-dihydrodibenzo[b,d]furan-4-carboxamide]",36
